{
  "source": "patent US7842802B2",
  "about": "“Vinorelbine derivatives” (priority 2003, dated 2010)",
  "note": "Where a name gives a salt, the structure may show the parent alone.",
  "data": [
    {"smiles": "CCC1=C[C@H]2CN(C1)Cc1c([nH]c3ccc(SCCC(=O)OC)cc13)[C@@](C(=O)OC)(c1cc3c(cc1OC)N(C)[C@H]1[C@@](O)(C(=O)OC)[C@H](OC(C)=O)C4C(CC)=CCN5CC[C@]31[C@H]45)C2", "note": "(stereo partly shown) (as salt: tartrate) [Example 7, 11′-(methoxycarbonylethylsulfanyl) vinorelbine]", "values": [
      {"measurement": "melting point", "result": "140 to 170 °C (dec.)"}
    ]}
  ]
}
